Measurements published in the NIST ThermoML archive (doi:10.1016/j.tca.2008.05.004).

Conditions: 101.33 kPa, Crystal; for molar entropy: Small (less than 1 g) adiabatic calorimetry

O=P([O-])([O-])[O-].[La+3] [lanthanum orthophosphate]
Conditions	molar entropy [J/K/mol]
2 K	0.00041
4 K	0.00372
6 K	0.01262
8 K	0.0291
10 K	0.0561
12 K	0.09746
14 K	0.1576
16 K	0.2412
18 K	0.3527
20 K	0.4961
25 K	1.015
30 K	1.776
35 K	2.783
40 K	4.024
45 K	5.479
50 K	7.119
60 K	10.84
70 K	14.97
80 K	19.34
90 K	23.86
100 K	28.43
110 K	33.01
120 K	37.56
130 K	42.08
140 K	46.55
150 K	50.59
160 K	55.29
170 K	59.57
180 K	63.77
190 K	67.91
200 K	71.98
210 K	75.99
220 K	79.93
230 K	83.81
240 K	87.62
250 K	91.37
260 K	95.06
270 K	98.69
280 K	102.3
290 K	105.8
300 K	109.2
320 K	116
340 K	122.5
360 K	128.8
373 K	132.9
400 K	141
450 K	155.1
500 K	168.2
550 K	180.3
600 K	191.7
650 K	202.4
700 K	212.6
750 K	222.1
800 K	231.3
850 K	240
900 K	248.3
950 K	256.3
1000 K	263.9
1050 K	271.3
1100 K	278.5
1150 K	285.4
1200 K	292.1
1250 K	298.6
1300 K	305
1350 K	311.1
1400 K	317.1
1450 K	323
1500 K	328.7
1550 K	334.3
1600 K	339.8

Conditions	mass density [kg/m3]
293 K, X-ray diffraction	5076
